# Legend:
# CbPrpB [1] = target: T1, CbPrpB (Coxiella burnetii, UniProt Q83DG5); test: biochemical
# T1 construct: gene prpB
# CbPrpB [2] = target: T1, CbPrpB
# T1 sequence (Q83DG5 1-290): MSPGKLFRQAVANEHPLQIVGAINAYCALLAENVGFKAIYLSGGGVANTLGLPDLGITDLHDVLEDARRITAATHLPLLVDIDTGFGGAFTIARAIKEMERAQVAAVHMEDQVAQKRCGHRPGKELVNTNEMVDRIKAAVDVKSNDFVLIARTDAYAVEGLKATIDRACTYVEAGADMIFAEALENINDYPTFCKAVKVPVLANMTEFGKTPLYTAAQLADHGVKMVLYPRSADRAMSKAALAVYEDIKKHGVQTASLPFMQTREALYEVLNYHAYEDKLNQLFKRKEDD
Compound,Ki (CbPrpB [1]),"X-ray crystal structure, soak (CbPrpB [2])"
O=C(O)C[C@H](C(=O)O)[C@@H](O)C(=O)O [isocitrate],6 ± 2 mM,
CC(=O)C(=O)O [pyruvate],,We first determined the structure of product-bound CbPrpB
O=C(O)CCC(=O)O [succinate],,We first determined the structure of product-bound CbPrpB
